B1: FLAG-Bfl-1: FLAG-tagged full-length Bfl-1 (protein, UniProt Q16548 1-175, looked up)
chain: MTDCEFGYIYRLAQDYLQCVLQIPQPGSGPSKTSRVLQNVAFSVQKEVEKNLKSCLDNVNVVSVDTARTLFNQVMEKEFEDGIINWGRIVTIFAFEGILIKKLLRQQIAPDVDTYKEISYFVAEFIMNNTGEWIRQNGGWENGFVKKFEPKSGWMTFLEVTGKICEMLSLLKQYC
modifications: full-length FLAG tag

Assays:
[1] = planar lipid bilayer reconstitution, electrophysiology
Method: The 29-mer ATAP peptide ([…]) (SEQ ID NO.: 36) corresponding to the C-terminus of Bfl1 and its mutant mHR7 (KFEP-KSGWMTFLQVTG-LICQMLSLLKQYC) (SEQ ID NO.: 50) were synthesized by Abgent (San Diego, Calif.) with 99% purity as measured by HPLC and mass spectrometry. The peptides were dissolved in DMSO to make a 10 mM stock. Phospholipids were purchased from Avanti Polar Lipids (Birmingham, Ala.). Electrophysiological analysis was performed as described (Lam et al., 1998; Ma et al., 1988). Lipid bilayer membranes were formed across an aperture of 200 μm diameter with a 1:1 mixture of bovine brain phosphatidylethanolamine and bovine brain phosphatidylserine dissolved in n-decane at a concentration of 50 mg/ml. The recording solutions contained: cis, 200 mM KCl and 10 mM HEPES-Tris (pH 7.4); trans, 50 mM NaCl, 10 mM HEPES-Tris (pH 7.4). 1 n1 of 10 mM peptides dissolved in DMSO were added into 900 n1 of cis solution and fused into the bilayer. Voltage manipulation and currents were measured using an Axopatch 200 A amplifier (Axon Instruments, Foster City, Calif.). Data analyses were preformed with pClamp and TIPS software.

[2] = test system: mitochondria membrane isolated from BMK-D3 cells; assay: in vitro cytochrome c release from isolated mitochondria; assay type: biochemical, mouse; settings: synthetic peptide 100 μM, 1 hour at 37° C.
Method: Mitochondria-free cytosol was prepared as previously described (Ko et al., 2003a). Briefly, 24 hours after transfection, HEK293 cells were collected by scraping, washed twice with ice-cold PBS, suspended in […] extraction buffer (50 mM PIPES-KOH, pH 7.4, 200 mM mannitol, 70 mM sucrose, 50 mM KCl, 5 mM EGTA, 2 mM MgCl2, 1 mM dithiothreitol and protease inhibitors), and incubated on ice for 30 minutes. Cells were lysed by Dounce homogenization and homogenates were centrifuged at 100,000 g for 15 minutes at 4° C. Supernatants were harvested and 20 μg of protein was analyzed by western blotting using monoclonal anticytochrome c antibody. For in vitro analysis of cytochrome c release, heavy membranes enriched in mitochondria were isolated from BMK-D3 cells using a mitochondria fractionation kit (Active Motif) according to the instructions of the manufacturer. Isolated mitochondria were diluted to a concentration of 1 mg/ml in the extraction buffer and incubated with synthetic ATAP or mHR7 peptides (100 μM) or DMSO as control for 1 hour at 37° C. The reactions were then centrifuged at 13,000 g for 10 minutes and the resulting pellets and supernatants were analyzed by SDS-PAGE.

[3] = test system: E. coli; assay: toxicity of bacterial expression; assay type: cell-based; settings: data not shown
[4] = test system: HEK293 cells; assay: cell death by propidium iodide (PI) staining / exclusion after transfection; assay type: cell-based; settings: HEK293, 24 h after transfection
Method: (§1) Apoptotic cell death was monitored after transfection of expression plasmids into HEK293, HeLa, MCF-7 or BMK D3 cells. 2×10^5 cells were cultured in 35-mm wells for 24 hours in Dulbecco's modified Eagle's medium (DMEM) supplemented with 10% fetal bovine serum. Cells were transfected using the Lipofectamine 2000 reagent (Invitrogen), with 1 μg of the indicated expression plasmids and further cultured in the absence or presence of 50 μM of pan-caspase inhibitor, Q-VD-OPH (OPH, Enzyme Systems Products). For morphological assessment of apoptotic cell death, cells were plated onto LabTek II chamber slides (Nalgen Nunc International) at densities of 5×10^4 cells per well. 24 hours after transfection, cells were washed with phosphate-buffered saline (PBS) prior to fixation with 4% formaldehyde. […] Cell death was also measured by propidium iodide (PI) exclusion. […] Cells were observed and photographed with a fluorescence microscope at three different fields containing approximately 200 GFP-positive cells. GFP and PI double-positive cells were counted as dead cells. Quantitative analysis of cell viability was determined by _-galactosidase reporter assay according to the procedures as described (Chittenden et al., 1995; Wood and Newcomb, 2000). […] At 24 hours following transfection, cells were harvested and β-galactosidase activity was measured using β-Galactosidase Enzyme Assay System (Promega). […]

[5] = test system: HEK293 cells; assay: β-galactosidase reporter assay of cell viability after co-transfection; assay type: cell-based; settings: HEK293, 24 h after co-transfection, n=5
Method: as §1

Molecule	changes in membrane conductance ([1]; peptide 11-44 μM, n=35)	cytochrome c release from isolated mitochondria [2]	reversal potential for currents ([1]; 200 mM KCl (cis) / 50 mM NaCl (trans))	rupture of the lipid bilayer, time after addition of the peptide ([1]; peptide >22.2 μM, n>30)	toxicity of expression in E. coli [3]	toxicity of expression in E. coli ([3]; listed as Bfl-1 TA peptide)	cell death by PI staining [4]	β-galactosidase activity [5]
KFEP-KSGWMTFLQVTG-LICQMLSLLKQYC (KFEPKSGWMTFLEVTGLICEMLSLLKQYC; (1)..(29) K163L - ATAP; listed as Homo sapiens) [mHR7 peptide, synthetic mutant of the 29-mer ATAP peptide]	did not induce any notable changes in membrane conductance	not observed	–	–	–	–	–	–
KFEPKSGWMTFLEVTGKICEMLSLLKQYC ((1)..(29) ATAP peptide derived from residues 147-175 of Bfl-1; listed as Homo sapiens) [29-mer amphipathic tail-anchoring peptide corresponding to the C-terminus of Bfl1 (a.a. 147-175)]	–	induced release of cytochrome c	~−30 mV	≤ 30 min	lysis of the cells	toxic to E. coli cell growth	–	–
B1	–	–	–	–	–	–	no toxic effect	1.11±0.06 fold over control
